# In patent publication US6376553B1, “Treatment of pain” (Knoll Pharmaceutical Company, priority 1999, dated 2002):
# Molecular target: [3H]Noradenaline reuptake (Rattus norvegicus, UniProt Q9WTR4)
# Test: biochemical
# Sequence of [3H]Noradenaline reuptake (Q9WTR4 1-597): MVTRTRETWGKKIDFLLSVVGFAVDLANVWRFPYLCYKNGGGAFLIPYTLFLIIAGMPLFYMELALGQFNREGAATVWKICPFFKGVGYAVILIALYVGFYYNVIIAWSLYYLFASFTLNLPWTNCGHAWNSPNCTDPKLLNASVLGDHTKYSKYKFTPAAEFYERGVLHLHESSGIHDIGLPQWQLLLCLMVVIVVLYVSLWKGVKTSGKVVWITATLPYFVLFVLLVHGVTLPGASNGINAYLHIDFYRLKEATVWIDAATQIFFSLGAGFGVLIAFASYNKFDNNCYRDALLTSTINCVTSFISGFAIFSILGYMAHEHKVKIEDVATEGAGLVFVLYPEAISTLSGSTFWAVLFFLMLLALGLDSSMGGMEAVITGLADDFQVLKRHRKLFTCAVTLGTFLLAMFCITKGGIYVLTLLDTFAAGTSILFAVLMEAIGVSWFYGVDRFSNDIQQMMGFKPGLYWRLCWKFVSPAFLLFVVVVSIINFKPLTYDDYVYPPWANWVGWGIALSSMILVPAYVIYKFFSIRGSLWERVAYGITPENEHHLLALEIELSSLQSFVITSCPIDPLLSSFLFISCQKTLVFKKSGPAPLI
structure (smiles),measurement,value
CC(NC(C)(C)C)C(=O)c1cccc(Cl)c1 (stereo not shown) [Bupropion],Ki,2590 nM
